In patent publication US12226401B2, “Molecular genetic approach to treatment and diagnosis of alcohol and drug dependence” (priority 2010, dated 2025):
Read-outs that look alike come from different tables or passages of the source.

Legend:
[1] = dose of 50 mg/day; cited from earlier work
[2] = cited from earlier work
[3] = tested on: methamphetamine dependent subjects; type: in vivo, human
Description: Methods—The study was conducted at 8 sites, 140 subjects consented, screened for study eligibility and met DSM-IV criteria for methamphetamine dependence. Subjects were randomized to topiramate or placebo at 50 mg, escalating to 200 mg topiramate daily over weeks 1-5, and 200 mg daily over weeks 6-12. The primary outcome measure was abstinence from methamphetamine during study weeks 6 through 12. Methamphetamine use was determined using qualitative urine testing at a central laboratory. The primary outcome was analyzed using a Generalized Estimating Equation (GEE) model during weeks 6 through 12. Secondary outcomes included use reduction compared to baseline, relapse rate for subjects with negative urine at randomization, and craving. Blood samples were collected for genetic markers to examine the effects of topiramate on gene expression and to correlate genetic subtypes with response to treatment. RNA samples were collected from whole blood for 50 topiramate- and 49 placebo-treated individuals at baseline and weeks 8 and 12. Genome-wide expression profiles between positive and negative responders for Weeks 8 and 12 from placebo- and topiramate-treated groups were compared.

Compound	Individuals in alcohol trials unable to tolerate naltrexone [1]	Cognitive impairment reported by individuals who take topiramate ([2]; general population)	Occurrence rate of cognitive impairment ([2]; substance abuse field)	Treatment effect on primary outcome variable (abstinence from methamphetamine, weeks 6-12) ([3]; all subjects)	Treatment effect, exploratory analysis ([3]; subjects (n=26) with negative urine prior to randomization, p=0.02)	Treatment effect, exploratory analysis ([3]; subjects (n=35) whose baseline use was <18 days out of previous 30, p=0.03)
Cl.O=C1CC[C@@]2(O)[C@H]3Cc4ccc(O)c5c4[C@@]2(CCN3CC2CC2)[C@H]1O5 [naltrexone, 17-(Cyclopropylmethyl)-4,5a-epoxy-3,14-dihydroxymorphinan-6-one hydrochloride]	about 15%					
CC1(C)O[C@@H]2[C@@H](CO[C@@]3(COS(N)(=O)=O)OC(C)(C)O[C@@H]23)O1 [topiramate, 2,3:4,5-Bis-O-(1-methylethylidene)-beta-D-fructopyranose sulfamate]		2.4%	about 18.7%	no significant treatment effect	significant treatment effect	significant treatment effect
